tested on: IL-17; test: Inhibition of IL-17 secretion by compounds; assay type: cell-based

In order of rising “IL-17 Secretion Inhibition” value:
1. CCOc1nc2c(N)ncnc2n1CC1CC1 [Compound P8]  45.4%
2. CCCn1c(=O)c2nc(-c3ccc(OCc4nc5ccccc5[nH]4)cc3)[nH]c2n(CCC)c1=O [Compound P2]  54.1%
3. CCCn1c(=O)c2nc(-c3ccc(OCc4nc5cc(C)ccc5[nH]4)cc3)[nH]c2n(CCC)c1=O [Compound P5]  64.3%
